# In article PMC4530782 (Bioorganic & medicinal chemistry letters, 2011):
# Experiments:
# [1] = system: Stat3 phosphorylation in MDA-468 cells; assay type: cell-based, human; conditions: 24 hrs
# [2] = system: Stat3 phosphorylation in JJN3 cells; assay type: cell-based, human; conditions: 24 hrs
# Water solubility = assay type: physicochemical; conditions: compared with 7 and 17e
# Stat1 = conditions: read-out: Stat1 Ki, fluorescence polarization; earlier work on 7; cited from earlier work
# [3] = system: JJN3 (multiple myeloma) cancer cells; assay: Whole cell MTS cytotoxicity assay, JJN3; assay type: cell-based; conditions: Homo sapiens, JJN-3, 72 h, read-out: EC50 JJN3
# Stat5 = conditions: read-out: Stat5 Ki, fluorescence polarization; earlier work on 7; cited from earlier work
# breast tumor xenografts = conditions: cited from earlier work
# [4] = system: NIH3T3, TE-71 and HPDEC cells; conditions: cited from earlier work
# [5] = system: MDA-468 (breast) cancer cells; assay: Whole cell MTS cytotoxicity assay, MDA-468; assay type: cell-based; conditions: Homo sapiens, 72 h, read-out: EC50 MDA-468
# [6] = system: DU145 (prostate) cancer cells; assay: Whole cell MTS cytotoxicity assay, DU145; assay type: cell-based; conditions: Homo sapiens, DU-145, 72 h, read-out: EC50 DU145
SMILES,"levels of Stat3 downstream targets (cMYC, Bcl-xL, Survivin) ([1]; immunoblotting)","levels of Stat3 downstream targets (cMYC, Bcl-xL, Survivin) ([2]; immunoblotting)",water solubility (in words) (Water solubility),concentration at which Stat3 phosphorylation is inhibited ([1]; Western blot),Ki (Stat1) [µM],EC50 [3] [µM],Ki (Stat5) [µM],in vivo effect on breast tumor xenografts (breast tumor xenografts),effects against 'healthy' cells lacking activated Stat3 [4],concentration at which Stat3 phosphorylation is inhibited ([2]; Western blot),EC50 [5] [µM],EC50 [6] [µM]
CN(CC(=O)N(Cc1ccc(C2CCCCC2)cc1)c1ccc(C(=O)O)c(O)c1)S(=O)(=O)c1c(F)c(F)c(F)c(F)c1F [17o],effectively reduced levels of Stat3 downstream targets,effectively reduced levels of Stat3 downstream targets,much improved water solubility over both 7 and 17e,,,,,,,,,
Cc1ccc(S(=O)(=O)N(C)CC(=O)N(Cc2ccc(C3CCCCC3)cc2)c2ccc(C(=O)O)c(O)c2)cc1 [compound 7],,,,approximately 100 μM,> 25,93.3 ± 15.8,> 25,suppression of breast tumor xenografts,negligible effects,approximately 100 μM,17 ± 4.4,37.2 ± 12.4
